“Also recorded” adds a separate entry of the source.

This note sets out measurements from patent US10232023B2, “Methods for treatment of and prophylaxis against inflammatory disorders” (THE UNIVERSITY OF UTAH RESEARCH FOUNDATION, priority 2013, dated 2019).

In one test the test system is LPS-stimulated PMNs. In words: NET formation by LPS-stimulated adult human PMNs (live cell imaging, histone H3 release). Format: cell-based. Particulars: healthy adult PMNs; peptide/protein pre-incubation 1 hour (1 nM where stated); LPS 100 ng/mL.
In test [1] the test system is human PMNs incubated with dengue virus. In words: Dengue virus-induced NET formation by human PMNs. Type of test: cell-based. Particulars: pretreatment 1 nM, 1 hour; dengue virus 0.05 MOI. The protocol:
Mock incubation using dengue virus media without infection served as a control. Dengue virus induced NET formation by PMNs from human adults.
Primary PMNs isolated from healthy adults (2×10^6 cells/mL) were incubated with mock infection buffer or live dengue virus (MOI 0.05), as for the live cell imaging discussed above. After a 1 hour incubation, the infected PMNs were fixed with 2% p-FA for 10 minutes prior to incubation with fluorescently-labeled, cell permeable and cell impermeable DNA dyes, and imaged as for live cell imaging using confocal microscopy.

In test [2] the test system is outbred Swiss mice, intraperitoneal injection of E. coli. Kind of test: Survival after intraperitoneal E. coli. Format: in vivo, mouse. The protocol:
FIG. 10B is a graph tracking survival of outbred Swiss mice in various treatment arms following intraperitoneal injection of E. coli (4×10^7 bacteria). As in FIG. […] The same dose, delivery route, and schedule were followed for the scrambled peptide control mice. Here, 10 mice were assessed in each group: no treatment, E. coli plus CRISPP, and E. coli plus scrambled peptide.
Survival of outbred Swiss mice was tracked in various treatment arms following intraperitoneal injection of either LPS (20 mg/kg) or E. coli (4×10^7 bacteria), as shown in FIGS. 10A and 10B. […] The same dose, delivery route, and schedule were followed for the scrambled control peptide control mice. Six mice were assessed in both groups: LPS+CRISPP and LPS+scrambled control peptide. […] Ten mice were assessed in each group: no treatment, E. coli+CRISPP, and E. coli+scrambled control peptide. No antibiotics were given. No deaths occurred in the no treatment group. […] Referring to FIG. 11, CRISPP was also evaluated in a murine model of polymicrobial infection caused by cecal ligation and puncture (CL/P). CL/P was also performed without concomitant antibiotic treatment. Ten mice were assessed in each of the CL/P groups. […]
[…] Survival was assessed over 6 days at 6 hour to 12 hour intervals.

The test system of test [3] is PMNs isolated from healthy adult donors. Kind of test: PMN chemotaxis, modified Boyden Chamber assay. The settings on record: 1 nM, one hour pre-incubation; IL-8 2 ng/mL. Format: cell-based, human. The protocol: Chemotaxis by PMNs isolated from healthy adult donors was assessed using a modified Boyden Chamber assay±a one hour pre-incubation […] (1 nM), or SCR (1 nM). Recombinant human IL-8 (2 ng/mL) was used as the chemoattractant. Chemotaxis through a 5 micron filter was determined by counting PMNs in 10 randomly selected high-power fields as previously described in Hill et al., Lancet, 1974, 2: 617-619. In separate experiments, […], or SCR (all at 1 nM) were evaluated for chemoattractant activity using the same system.

For test [4] the test system is unchanged. Kind of test: PMN phagocytosis of E. coli BIOPARTICLES
Type of test: cell-based, human. Particulars: 1 nM, 60 minutes pre-incubation, 4 hours. Here is the method: PMNs were isolated from blood of healthy adult donors and resuspended in M-199 at a concentration of 2×10^6 cells/mL. Leukocytes were pre-incubated for 60 minutes under standard conditions with cytochalasin B and […] (1 nM), or SCR (1 nM). Following pre-incubation, PMNs were incubated with 6×10^6 E. coli BIOPARTICLES (E-13231, MOLECULAR PROBES) on a rotator for 4 hours under standard conditions. The PMNs were then washed and resuspended in the starting volume in M-199 before being spun down onto glass coverslips and fixed with 2% paraformaldehyde for 10 minutes and permeabilized with 0.1% Triton-X-100 for 10 minutes. Leukocytes were stained with WGA 555 (INVITROGEN) and TO[…] (MOLECULAR PROBES) and randomly selected high power visual field images were captured using confocal microscopy. IMAGE-J software (NIH) was used to determine the percentage of PMNs that were positive for fluorescently labeled E. coli BIOPARTICLES detected at 488 nm.

In the next test the test system is human platelets. In words: Platelet activation (P-selectin expression). Type of test: cell-based. Particulars: given alone or following thrombin stimulation (0.1 IU/mL). Here is the method:
Using protocols modified from van Velzen, et al., Thromb Res, 2012, 130: 92-98, human platelets (1×10^8 cells/mL) were incubated with CRISPP or SCR (0.1-10 ng/ml) for 1 hour followed by stimulation with thrombin (0.1 IU/mL) or control M-199 media for 15 minutes. The cells were prepared for FACS analysis with the following primary, monoclonal antibodies for 20 minutes: PE-conjugated CD41a (platelet-specific marker) and FITC-conjugated CD62P (P-selectin). Isotype and fluorochrome matched control antibodies were used. After incubation at room temperature in the dark, the cells were lysed with FACS lysis buffer and analyzed by flow cytometry (BECTON-DICKINSON FACSCAN, CELLQUEST software).

Another test relates to human PMNs and platelets. Kind of test: Platelet/PMN aggregation. Format: cell-based. Particulars: LPS-stimulated PMNs mixed with thrombin-stimulated platelets. The protocol: Using protocols modified from Saboor et al., […] Med Sci, 2013, 20: 62-66, human PMNs (2×10^6 cells/mL) were isolated and incubated with […] or SCR (0.1-10 ng/ml) for 1 hour prior to addition of freshly isolated human platelet at a ratio of 100:1 for another 15 minute incubation. After this period, the cells (PMNs and platelets) were stimulated with thrombin (0.1 IU/mL) or control M-199 media for 1 hour. The cells were stained for 20 minutes with the following primary monoclonal antibodies: PE-conjugated CD41 and FITC-conjugated CD16. Isotype and fluorochrome matched control antibodies were used. Flow cytometry was performed using BECTON-DICKINSON FACSCAN and CELLQUEST software.

Method for LPS-stimulated PMNs: PMNs from healthy adult donors and from 28 day old preterm infants were pre-incubated for one hour with thawed cord blood plasma from that particular preterm infant or with autologous plasma collected that day from either the preterm infant peripheral blood sample or the blood sample from the healthy adult. NET formation was then assessed in vitro following LPS-stimulation (100 ng/mL) for 2 hours.
Human PMNs isolated from healthy adult donors were stimulated with LPS (100 ng/mL) or phorbal-12-mystirate (PMA; 20 nM), ±nNIF (1 nM) or CRISPP (1 nM), pre-incubation (1 hour). Scrambled control peptide (SCR) generated using the identical amino acid content as CRISPP but linked in a random order was used as a control. NET formation was assessed 2 hours after stimulation.
Briefly, primary PMNs isolated from preterm infants, healthy term infants, and healthy adults (2×10^6 cells/mL) were incubated with control buffer or stimulated with LPS (100 ng/mL), PMA (20 nM), or S. aureus bacteria (MOI 100) for 1 hour at 37° C. in 5% CO2/95% air on glass coverslips coated with poly-L-lysine. For selected experiments, primary PMNs were pre-incubated with autologous plasma, cord blood plasma, nNIF (1 nM), CRISPP (1 nM), or SCR (1 nM) for 1 hour prior to imaging. After pre-incubation and/or stimulation, PMNs were gently washed with PBS and incubated with a mixture of cell permeable (SYTO Green, MOLECULAR PROBES) and impermeable (SYTOX Orange, MOLECULAR PROBES) DNA fluorescent dyes. Confocal microscopy was accomplished using a FV300 1×81 Microscope and FLUOVIEW software (OLYMPUS). Both 20× and 60× objectives were used. Z-series images were obtained at a step size 1 μm over a range of 20 μm for each field. OLYMPUS FLUOVIEW and ADOBE PHOTOSHOP CS2 software were used for image processing.
Supernatant total histone H3 content was determined as previously referenced in McInturff et al., Blood, 2012, 120: 3118-3125. After live cell imaging of control and stimulated primary PMNs (2×10^6/mL; various agonists), the cells were incubated with PBS containing DNase (40 U/mL) for 15 minutes at room temperature to break down and release NETs formed in response to stimulation. The supernatant was gently removed and centrifuged at 420×g for 5 minutes. The cell-free supernatant was then mixed 1:3 with 4× Laemmli buffer prior to western blotting. A polyclonal primary antibody against human histone H3 protein (CELL SIGNALING TECHNOLOGY) and infrared secondary antibodies (LI-COR BIOSCIENCES) were used. Imaging and densitometry were performed on the ODYSSEY™ infrared imaging system (LI-COR BIOSCIENCES).
To determine whether the 29 amino acid peptide identified in Example 5 were the substances circulating in umbilical cord blood responsible for the inhibition of NET formation, cord blood plasma was depleted of nNIF via affinity purification using the carboxy-terminus AAT antibody. nNIF was then eluted from the column and used in experiments to assess the NET-inhibitory activity of unaltered cord blood plasma, nNIF-depleted cord blood plasma, and affinity purified nNIF from cord blood plasma. As a control, recombinant AAT in nNIF-depleted cord blood was also assessed (see FIGS. 5A-5F).
Cord blood plasma depleted of both nNIF and full length AAT was collected as were the peptides captured by affinity purification for use in in vitro assays of NET formation. Full length, enzymatically active AAT (SIGMA) was also resuspended in elution buffer and tested in parallel.

Consider “Cancer-Associated SCM-Recognition, Immune Defense Suppression, and Serine Protease Protection Peptide [CRISPP, nNIF-related peptide (nNRP)]”, for which, in the test with LPS-stimulated PMNs, the “NET formation by LPS-stimulated PMNs” value was “blocked NET formation by LPS-stimulated PMNs in a concentration dependent manner; also recorded: significantly inhibited NET formation”. Moreover, the “NET formation induced by dengue virus” value in test [1] is reported as “completely blocked NET formation; also recorded: inhibited NET formation”. In test [2] (CRISPP-Post/E. coli vs SCR-Post/E. coli, peptide 4 hours after infection), the “Survival, post-infection treatment” value was “approached statistical significance”. The Survival entry in test [2] (E. coli 4×10^7 IP, 10 mcg/kg/dose IP, 1 hour prior and 6 hours after, vs E. coli+scrambled peptide, p<0.0001) is “statistically greater”. In addition, in test [3], the PMN chemotaxis result is given as “did not significantly inhibit”. The PMN phagocytosis result in test [4] is “did not significantly inhibit”. Further, in the test with human platelets, the Platelet p-selectin expression result was “did not alter”. In addition, the “Platelet/PMN association (flow cytometry)” value in the test with human PMNs and platelets was “did not alter”.
